The test system of series [1] is C57BL/6J male mice. As to the kind of experiment: Evaluation of nephrotoxicity reducing effects of D-sorbitol: serum BUN and Cre after tail vein administration of PMO dosing solutions. The conditions noted are these: D-sorbitol in PMO dosing solution vs dosing solution comprising no D-sorbitol.
Experimental: Next, the antisense oligomer of PMO No. 2 was dissolved in a solution obtained by dissolving D-sorbitol (manufactured by Maruishi Pharmaceutical Co., Ltd.) with physiological saline to prepare a dosing solution comprising the antisense oligomer and D-sorbitol at the concentrations shown in Table 9. Also, the antisense oligomer of PMO No. 3 was dissolved in a solution obtained by dissolving D-sorbitol with water for injection to prepare a dosing solution comprising the antisense oligomer and D-sorbitol at the concentrations shown in Table 10.
The obtained dosing solutions were administered into the tail vein of 6-week-old C57BL/6J male mice (N=3) at 4 and 10 mL/kg. Next day, serum was collected from the mice, and the blood urea nitrogen (BUN) values and blood creatinine (Cre) values were measured with the urease-GIDH method and the enzymatic method, respectively, using automatic biochemical analyzers JCA-BM8060 (manufactured by JEOL Ltd.). It was determined that the nephrotoxicity was reduced in a case where both of the BUN values and Cre values decreased in the mice to which the dosing solution comprising D-sorbitol has been administered, compared to the mice to which the dosing solution comprising no D-sorbitol has been administered.
For series [2], the system named is C57BL/6J male mice. As to the kind of experiment: Evaluation of nephrotoxicity reducing effects of D-mannitol: serum BUN and Cre after tail vein administration of PMO dosing solutions. The conditions noted are these: D-mannitol in PMO dosing solution vs control dosing solution comprising no D-mannitol.
Text: The antisense oligomers of PMO Nos. 1, 2, 6, 7, and 10 were each dissolved in water for injection comprising 0.9% sodium chloride (manufactured by Otsuka Pharmaceutical Co., Ltd.) to prepare a control dosing solution comprising each of the antisense oligomers at the concentrations shown in Tables 2, 3, 6, 7, and 8 and comprising no D-mannitol. Also, the antisense oligomers of PMO Nos. 3 and 4 were each dissolved in 5% glucose (manufactured by Otsuka Pharmaceutical Co., Ltd.) to prepare a control dosing solution comprising each of the antisense oligomers at the concentrations shown in Tables 4 and 5 and comprising no D-mannitol. […]
The obtained dosing solutions were administered into the tail vein of 6-week-old C57BL/6J male mice at 4, 10, and 20 mL/kg. Next day, serum was collected from the mice, and the blood urea nitrogen (BUN) values and blood creatinine (Cre) values were measured with the urease-GIDH method and the enzymatic method, respectively, using automatic biochemical analyzers JCA-BM6050 or JCA-BM8060 (manufactured by JEOL Ltd.).
Series [3] is described as follows: Evaluation of precipitation suppressing effects with D-mannitol (absorbance at 620 nm in presence of ions assumed to be in urine). Format: physicochemical. To be noted: D-mannitol as medium for PMO Nos. 1, 2, 3, 5, 6, 7, ions assumed to be in urine, 37° C. The protocol: The amount of precipitation in the presence of ions assumed to be in urine and precipitation suppressing effects of D-mannitol were evaluated on the antisense oligomers of PMO Nos. 1, 2, 3, 5, 6, and 7 (SEQ ID NO: 1, 2, 3, 5, 6, and 7) among those listed in Table 1 to further verify their utility for pharmaceutical applications.

Turning to `OC[C@@H](O)[C@@H](O)[C@H](O)[C@@H](O)CO` [D-sorbitol], the Nephrotoxicity reducing effect entry in series [1] is “reduce nephrotoxicity”.

Regarding `OC[C@@H](O)[C@@H](O)[C@H](O)[C@H](O)CO` [D-mannitol], in series [2], the Nephrotoxicity reducing effect result was “reduce nephrotoxicity”. Besides, the Precipitation suppressing effect entry in series [3] is listed as “suppress the precipitation of antisense oligomers”.
